Laboratory results from patent publication US6677431B2, “Design, preparation, and properties of antibacterial β-peptides” (The Trustees of the University of Pennsylvania, priority 1999, dated 2004).

How the values were obtained:
osmY-lux fusion = assay: Stress-induced response assay, induction of osmY-lux fusion; type: cell-based; conditions: for induction of osmY-lux: Group II peptides; for osmY gene fusion response: Table 4, stress sensed osmotic shock
Experimental: Stress-induced response and growth inhibition assays were carried out on samples of four of the β-peptide and compared to known polycationic peptides.
Polymyxin B was tested both rich, LB, medium and defined, M9, medium. The other natural peptides were tested in LB medium.
The β-peptides were tested in M9 medium. * In LB medium (data from Oh et al. Biochem. Biophys. Acta. 2000,1463: 43-54)
However, similar to the magainins, no induction of the micF-lux fusion was observed. Also, the minimum inhibitory concentrations (MIC's) were determined to be higher than those reported in the published manuscript.
Samples of these β-peptides 1 and 2 were evaluated in the stress-induced response assays.
(§1) The biolumenescence data result from test carried out according to U.S. Pat. No. 5,683,868, Highly Sensitive Method For Detecting Environmental Insults, issued Nov. 4, 1997 to LaRossa et al., the entire contents of the disclosure of are hereby incorporated by reference, The tests described in this patent permit antibacterial properties of peptides or any other materials to be assessed. […] Along these lines, FIG. 5 illustrates a relationship between relative light units and minutes of exposure of bacteria to the various materials in the legend. P×B represents polymyxin, a known antibacterial material. In the graph, a decrease in RULs corresponds to a decrease in bacteria. […]

recA-lux bioluminescence = assay: Inhibition of recA-lux bioluminescence in M9 media; type: cell-based; conditions: inhibition of recA-lux bioluminescence in M9 media (Van Dyk lab)
Experimental: (§2) ∇in M9 medium (data from Hamuro et al., ref. 5) # In M9 medium.+Hemolysis experiments were performed by incubating a 0.25% suspension of human RBc's in 10 mM Tris buffer containing […] at pH 7.0 with varying amounts of peptide. The hemolytic dose required to lyse 50% of the RBC's is reported as the HD50.
as §1

[1] = Hemolysis assay, 50% lysis of RBC's; type: cell-based, human; conditions: human, 0.25% suspension of human erythrocytes (RBCs)
Experimental: (§3) The biological activities of these peptides were measured using human erythrocytes and E. coli as models for mammalian and bacterial cells, respectively. Hemolysis was monitored in 10 mM Tris, 150 mM NaCl, pH 7.0, while the bacterial assay was conducted in minimal media M9 (Table 1); both of these solutions are sufficiently transparent to allow CD and ultracentrifugation measurements (supplementary material). Under the assay conditions, the peptides gave CD spectra similar to those in Tris buffer, with the exception of H-(β^3-HLeu-β^3-HLys-β^3-HLeu)n-OH, n=5 and 6.
as §2
(§4) Hemolysis experiments were carried out by incubating 0.25% suspension of human erythrocytes (RBC's) with peptides of different concentrations in 150 mM sodium choloride, 10 mM Tris buffer, pH 7.0. The sample was prepared by combining 400 μL of the RBC suspension and […] of the peptide solution. After incubated the sample at 37— C. for 1 hour, the sample was centrifuged at 14,000 rpm for 5 min, and the OD414 of the supernatant was measured. Mellitin (50 μM) was used to get 100% hemolysis. The hemolytic IC50 was obtained by plotting hemolysis percentage vis. peptide concentration, and the concentration required for 50% hemolysis was determined from the smooth curve-fitted graph.
(§5) The activity and selectivity of peptide 1 and peptide 2 were examined by antibacterial assay and hemolysis experiments. E. Coli and human erythrotytes (RBC) were used as models for bacterial cell and mammalian cell, respectively. The peptide concentration required for 50% bacterial growth suppression (IC50), and peptide concentration required for 50% RBC lysis (HD50) are listed in Table 3. […] The antibacterial activities of peptide 1 and peptide 2 are about the same except peptide 2 has slightly lower IC50. Similar trend has been observed in the previous study, that longer peptide tends to have higher activity. However, the difference in IC50 is much smaller for this series of peptide than the previously studied ones. Antibacterial peptide with good selectivity is usually represented by its low hemolysis ability. […] The HD50 is 670 μM for peptide 1 and 240 μM for peptide 2, which gives a selectivity of 111 for peptide 1 and 60 for peptide 2.

[2] = tested on: human erythrocytes (RBC's); assay: Hemolysis assay, 50% lysis of RBC's; type: cell-based
Experimental: as §3, §2, §4, §5

[3] = Peptide binding to phospholipid bilayers by CD, SOPC vesicles; conditions: for helix formation on phosphocholin vesicles (POPC and SOPC): CD, model of mammalian cell membrane
[4] = Peptide-induced leakage of liposomal contents (calcein release)
Experimental: The leakage of liposome contents to the external media was monitored by the release of calcein encapsulated in vesicles. The vesicle was prepared by reverse-phase evaporation in 10 mM sodium phosphate buffer, pH 7, followed by single extrusion through one 0.2 μm pore size polycarbonate filter. The non trapped calcein was removed by eluting through a size exclusion Sephadex G-25 column, with 90 mM sodium chloride, 10 mM sodium phosphate, pH 7. The leaking kinetics was monitored by follow the increase of calcein fluorescence intensity at 520 nm (excitation at 490 nm) due to release of self-quenching. The experiment was carried out on a Hitachi F-2500 Fluoresence spectrophotometer, with a slit width of […]. The initial rate was calculated from the linear part of the %leakage vs. time curve.
The mechanism of how the antibacterial peptides work is still on debate. However, it is generally believed they kill the cell by disturbing cell membranes. The experiment of peptide-induced leakage of liposomal contents is a direct way to monitor this process. Large unilammilar vesicles (LUV) of SOPS/SOPC (1:9) were used in the binding study. The leakage of encapsulated calcein was detected by its fluorescence at 515 nm. The fraction of bound lipid at different peptide concentration was calculated and overlaid in FIG. 4 as well. The lysis abilities of the two peptides are similar at low peptide concentration, and become quite different with increasing amount of peptide. […] With increase of peptide concentration, the leakage percentage increases quickly. For peptide 2, the leakage percentage jumps to 100% within the range between 0.05 μM and 0.14 μM where the corresponding fractions of lipid bound are about 10% 40%, respectively. […] The percentage of leakage increases to about 80% when the peptide concentration reaches 0.5 μM. The lysis ability stays at a plateau until the peptide concentration is pushed up to 2 μM, when about 60% of lipid molecules are bound to peptide molecules. […] The difference between the two peptides is even more obvious when looking at the leakage rate right after the addition of peptide to the vesicle solution, as shown in FIG. 3. The initial leakage rate for peptide 2 increases sharply when the peptide concentration increases from 0.14 μM to 0.19 μM. […] For peptide 1, the leakage initial rate increases in a continuous fashion, and 100% leakage is not complete until 300 s with 5.18 μM peptide.

Structure (SMILES)	induction of osmY-lux (osmY-lux fusion)	osmY gene fusion response (osmY-lux fusion)	IC50 (recA-lux bioluminescence) [µM]	HC50 at 1 h [1] [µM]	HC50 [2] [µM]	HD50 [2] [µM]	helix formation on phosphocholin vesicles (POPC and SOPC) [3]	Kd ([3]; SOPC LUV) [µM]	percentage of leakage ([4]; at 285 seconds, peptide between 0.05 μM and 0.14 μM) [%]	time to complete lysis of the vesicle ([4]; peptide concentration higher than 0.5 μM) [s]	HC50 at 1 h ([1]; pH 7) [µM]	time to 100% leakage ([4]; 5.18 μM peptide) [s]	lysis of the vesicle ([4]; at 285 seconds, 5 μM peptide)	percentage of leakage ([4]; at 285 seconds, peptide 0.5 μM)
CC(C)[C@@H](CC(N)=O)NC(=O)C[C@H](CCCCN)NC(=O)C[C@H](C)NC(=O)C[C@@H](NC(=O)C[C@H](CCCCN)NC(=O)C[C@H](C)NC(=O)C[C@@H](NC(=O)C[C@H](CCCCN)NC(=O)C[C@H](C)NC(=O)C[C@@H](NC(=O)C[C@H](CCCCN)NC(=O)C[C@H](C)NC(=O)C[C@@H](NC(=O)C[C@H](CCCCN)NC(=O)C[C@H](C)N)C(C)C)C(C)C)C(C)C)C(C)C [Peptide 2]	induction	yes	3	240	240	240	shows increase of helix content	15	100	≤ 20				
CC(C)[C@@H](CC(N)=O)NC(=O)C[C@H](CCCCN)NC(=O)C[C@H](C)NC(=O)C[C@@H](NC(=O)C[C@H](CCCCN)NC(=O)C[C@H](C)NC(=O)C[C@@H](NC(=O)C[C@H](CCCCN)NC(=O)C[C@H](C)NC(=O)C[C@@H](NC(=O)C[C@H](CCCCN)NC(=O)C[C@H](C)N)C(C)C)C(C)C)C(C)C [Peptide 1]	induction	yes	10		670	670	does not show any formation of helix				670	300	Complete lysis	about 80%
